Source: US6410782B1, “Diphosphonic acid salts for the treatment of osteoporosis” (Geange Ltd., priority 1997, dated 2002)
Structures can show the parent of a compound that is named as a salt.

Key:
[1] = tested on: N-acetylglycosaminidase (as osteoclastic activity index); details: scalp slices of new-born mouse, tissue culture; starting from the 10 μmolar concentration
Description: (§1) A study on a tissue culture (scalp slices of new-born mouse prepared according to the method described by A. Togari, Gen. Pharmacol. 24, 1133, 1993) was performed. At the end of the culture period, the tissue added μmolar concentrations of the title product, was homogenised in saline plus 0.1% Triton X-100.
(§2) The obtained homogenate was used to determine alkaline phosphatase (as osteoblastic activity index) and N-acetylglycosaminidase (as osteoclastic activity index).

[2] = tested on: alkaline phosphatase (as osteoblastic activity index); details: scalp slices of new-born mouse, tissue culture; starting from the 10 μmolar concentration
Description: as §1, §2

osteoclastic activity (N-acetylglycosaminidase) [1]: inhibit the osteoclastic activity
Structure (SMILES): NCCCC(O)(P(=O)(O)O)P(=O)(O)O [alendronate trometamine, alendronate trometamine salt]
osteoblastic activity (alkaline phosphatase) [2]: activate in a significant manner the osteoblastic activity
